Patent publication US7244738B2, “Arylamine-substituted quinazolinone compounds useful as alpha 1A/B adrenergic receptor antagonists” (Roche Palo Alto LLC, priority 2003, dated 2007)
Counter-ions that a name gives are not always drawn.

Row | melting point | Compound
1 | 145 °C | COCC/C(=N\c1cccc(CN(C)c2nc(=O)c3c(OC)c(OC)c(OC)cc3[nH]2)c1)N(C)C.Cl
2 | 166 to 169 °C | COc1cc2[nH]c(N(C)Cc3ccc(CN4CCC(O)C4)cc3)nc(=O)c2c(C)c1OC (centres unmarked)
3 | 181.5 to 189.4 °C | COc1cc2[nH]c(N(C)Cc3cccc(C4CCN(C)CC4)c3)nc(=O)c2c(OC)c1OC.Cl
4 | 220 to 223 °C | COc1cc2[nH]c(N(C)Cc3cccc(N4CCCC4)c3)nc(=O)c2cc1OC.Cl
5 | 139.7 to 146.6 °C | COc1ccc(CN(C)c2nc(=O)c3c(OC)c(OC)c(OC)cc3[nH]2)cc1OCC(CO)CO (as salt: HCl) [Example 3, 2-{[3-(3-Hydroxy-2-hydroxymethyl-propoxy)-4-methoxy-benzyl]-methyl-amino}-5,6,7-trimethoxy-1H-quinazolin-4-one]
6 | 220 to 224 °C | COc1cc2[nH]c(N(C)Cc3cccc(OCC(O)CO)c3)nc(=O)c2c(C)c1OC (centres unmarked) (as salt: HCl) [Example 7, 2-{[3-(2,3-Dihydroxy-propoxy)-benzyl]-methyl-amino}-6,7-dimethoxy-5-methyl-1H-quinazolin-4-one]
7 | 197.5 to 199 °C | COc1cc2[nH]c(N(C)Cc3ccc(OCC(CO)CO)cc3)nc(=O)c2c(C)c1OC (as salt: HCl) [Example 15, 2-{[4-(3-Hydroxy-2-hydroxymethyl-propoxy)-benzyl]-methyl-amino}-6,7-dimethoxy-5-methyl-1H-quinazolin-4-one]
8 | 172.9 to 175.9 °C | COc1cc2[nH]c(N(C)Cc3cccc(N4CCC(O)C4=O)c3)nc(=O)c2c(OC)c1OC (centres unmarked) (as salt: HCl) [Example 22, 2-{[3-(3-Hydroxy-2-oxo-pyrrolidin-1-yl)-benzyl]-methyl-amino}-5,6,7-trimethoxy-1H-quinazolin-4-one]
9 | 265 to 268 °C | COCCNCc1ccc(CN(C)c2nc(=O)c3c(C)c(OC)c(OC)cc3[nH]2)cc1 (as salt: HCl) [Example 36, 6,7-Dimethoxy-2-({4-[(2-methoxy-ethylamino)-methyl]-benzyl}-methyl-amino)-5-methyl-1H-quinazolin-4-one]
10 | 248.2 to 249.4 °C | COc1cc2[nH]c(N(C)Cc3ccc(CN)cc3)nc(=O)c2c(C)c1OC (as salt: HCl) [Example 42, 2-[(4-Aminomethyl-benzyl)-methyl-amino]-6,7-dimethoxy-5-methyl-1H-quinazolin-4-one]
11 | 191 to 192.2 °C | COc1cc2[nH]c(N(C)Cc3ccc(OCCCN(C)C)cc3)nc(=O)c2c(C)c1OC (as salt: HCl) [Example 44, 2-{[4-(3-Dimethylamino-propoxy)-benzyl]-methyl-amino}-6,7-dimethoxy-5-methyl-1H-quinazolin-4-one]
12 | 264 to 268 °C | CNCc1ccc(CN(C)c2nc(=O)c3c(C)c(OC)c(OC)cc3[nH]2)cc1 (as salt: HCl) [Example 55, 6,7-Dimethoxy-5-methyl-2-[methyl-(4-methylaminomethyl-benzyl)-amino]-1H-quinazolin-4-one]
13 | 242 to 245 °C | COc1cc2[nH]c(N(C)Cc3cccc(/N=C/N(C)C)c3)nc(=O)c2cc1OC (as salt: HCl) [Example 86, N′-(3-{[(6,7-Dimethoxy-4-oxo-1,4-dihydro-quinazolin-2-yl)-methyl-amino]-methyl}-phenyl)-N,N-dimethyl-formamidine]
14 | > 300 °C (dec.) | COc1cc2[nH]c(N(C)Cc3ccccc3N)nc(=O)c2c(OC)c1OC (as salt: HCl) [Example 104, 2-[(2-Amino-benzyl)-methyl-amino]-5,6,7-trimethoxy-1H-quinazolin-4-one]
15 | 169 to 171.9 °C | COc1cc2[nH]c(N(C)Cc3cccc(CN(C)CCO)c3)nc(=O)c2c(OC)c1OC (as salt: HCl) [Example 116, 2-[(3-{[(2-Hydroxy-ethyl)-methyl-amino]-methyl}-benzyl)-methyl-amino]-5,6,7-trimethoxy-1H-quinazolin-4-one]
16 | 175 to 195 °C | COc1cc2[nH]c(N(C)Cc3cccc(CC4CCN(C)CC4)c3)nc(=O)c2c(OC)c1OC (as salt: HCl) [Example 127, 5,6,7-Trimethoxy-2-{methyl-[3-(1-methyl-piperidin-4-ylmethyl)-benzyl]-amino}-1H-quinazolin-4-one]
17 | 166.5 to 172.9 °C | COc1cc2[nH]c(N(C)Cc3cccc(NC(C)=O)c3)nc(=O)c2c(OC)c1OC (as salt: HCl) [Example 174, N-(3-{[Methyl-(5,6,7-trimethoxy-4-oxo-1,4-dihydro-quinazolin-2-yl)-amino]-methyl}-phenyl)-acetamide]
18 | 156 to 157.2 °C | COc1cc2[nH]c(N(C)Cc3cccc(N(C)CCCO)c3)nc(=O)c2c(OC)c1OC (as salt: HCl) [Example 187]

Row | melting point | Compound
19 | 207 to 209.1 °C | COCCCNc1cccc(CN(C)c2nc(=O)c3c(OC)c(OC)c(OC)cc3[nH]2)c1 (as salt: HCl) [Example 188, 5,6,7-Trimethoxzy-2-{[3-(3-methoxy-propylamino)-benzyl]-methyl-amino}-1H-quinazolin-4-one]
20 | 166.7 to 168.1 °C | COCCCN(C)c1cccc(CN(C)c2nc(=O)c3c(OC)c(OC)c(OC)cc3[nH]2)c1 (as salt: HCl) [Example 189, 5,6,7-Trimethoxy-2-({3-[(3-methoxy-propyl)-methyl-amino]-benzyl}-methyl-amino)-1H-quinazolin-4-one]
21 | 279.9 to 281.5 °C | COc1cc2[nH]c(N(C)Cc3cccc(C#N)c3)nc(=O)c2c(C)c1OC (as salt: TFA) [Example 96, 3-{[(6,7-Dimethoxy-5-methyl-4-oxo-1,4-dihydro-quinazolin-2-yl)-methyl-amino]-methyl}-benzonitrile]
22 | 106.1 to 116.6 °C | COc1cc2[nH]c(N(C)Cc3cccc(C4=NCCN4CCO)c3)nc(=O)c2c(OC)c1OC (as salt: TFA) [Example 245, 2-({3-[1-(2-Hydroxy-ethy)-4,5-dihydro-1H-imidazol-2-yl]-benzyl}-methyl-amino)-5,6,7-trimethoxy-1H-quinazolin-4-one]
23 | 162.9 to 164.5 °C | COCCN(C)Cc1cccc(CN(C)c2nc(=O)c3c(OC)c(OC)c(OC)cc3[nH]2)c1 (as salt: hydrochloride) [Example 117, 5,6,7-Trimethoxy-2-[(3-{[(2-methoxy-ethyl)-methyl-amino]-methyl}-benzyl)-methyl-amino]-1H-quinazolin-4-one]
24 | 212.5 to 219.9 °C | CCc1c(OC)c(OC)cc2[nH]c(N(C)Cc3cccc(N=C4N(C)CCN4C)c3)nc(=O)c12 (as salt: salt) [Example 207, 2-{[3-(1,3-dimethyl-imidazolidin-2-ylideneamino)-benzyl]-methyl-amino}-5-ethyl-6,7-dimethoxy-1H-quinaolin-4-one]
25 | 220 to 223 °C | COc1cc2nc(N(C)Cc3cccc(N4CCCC4)c3)[nH]c(=O)c2cc1OC (as salt: salt) [Example A-1, 6,7-Dimethoxy-2-[methyl-(3-pyrrolidin-1-yl-benzyl)-amino]-1H-quinazolin-4-one]
26 | 224 to 227.8 °C | COc1cc2[nH]c(N(C)Cc3cccc(Oc4ncccn4)c3)nc(=O)c2c(C)c1OC (as salt: salt) [Example F-3, 6,7-Dimethoxy-5-methyl-2-{methyl-[3-(pyrimidin-2-yloxy)-benzyl]-amino}-1H-quinazolin-4-one]
27 | 170.6 to 172.5 °C | COc1cc2nc(N(C)Cc3cccc(/N=C(\C)N(C)C)c3)[nH]c(=O)c2c(C)c1OC (as salt: salt) [Example G-1, N′-(3-{[(6,7-Dimethoxy-5-methyl-4-oxo-1,4-dihydro-quinazolin-2-yl)-methyl-amino]-methyl}-phenyl)-N,N-dimethyl-acetamidine]
28 | 97.8 to 101.9 °C | COc1cc2[nH]c(N(C)Cc3ccc(CN(C)CCC(F)(F)F)cc3)nc(=O)c2c(OC)c1OC [Example 1, 5,6,7-Trimethoxy-2-[methyl-(4-{[methyl-(3,3,3-trifluoro-propyl)-amino]-methyl}-benzyl)-amino]-1H-quinazolin-4-one]
29 | 108.1 to 111.5 °C | COCC(O)COc1ccc(CN(C)c2nc(=O)c3c(OC)c(OC)c(OC)cc3[nH]2)cc1 (centres unmarked) [Example 2, 2-{[4-(2-Hydroxy-3-methoxy-propoxy)-benzyl]-methyl-amino}-5,6,7-trimethoxy-1H-quinazolin-4-one]
30 | 125.9 to 128 °C | COc1cc2[nH]c(N(C)Cc3cccc(C(C)N(C)C(=O)N(C)C)c3)nc(=O)c2c(C)c1OC (centres unmarked) [Example 4, 1-[1-(3-{[(6,7-Dimethoxy-5-methyl-4-oxo-1,4-dihydro-quinazolin-2-yl)-methyl-amino]-methyl}-phenyl)-ethyl]-1,3,3-trimethyl-urea]
31 | 117.9 to 120.1 °C | COC(=O)N(C)C(C)c1cccc(CN(C)c2nc(=O)c3c(C)c(OC)c(OC)cc3[nH]2)c1 (centres unmarked) [Example 5]
32 | 210.8 to 215.4 °C | COc1ccc(CN(C)c2nc(=O)c3c(C)c(OC)c(OC)cc3[nH]2)cc1OCC(CO)CO [Example 6, 2-{[3-(3-Hydroxy-2-hydroxymethyl-propoxy)-4-methoxy-benzyl]-methyl-amino}-6,7-dimethoxy-5-methyl-1H-quinazolin-4-one]
33 | 142.5 to 147.4 °C | COc1cc2[nH]c(N(C)Cc3cccc(N4C[C@@H](OC)CC4=O)c3)nc(=O)c2c(OC)c1OC [Example 8, 5,6,7-Trimethoxy-2-{[3-((S)-4-methoxy-2-oxo-pyrrolidin-1-yl)-benzyl]-methyl-amino}-1H-quinazolin-4-one]
34 | 159.4 to 160.4 °C | COCCOC(=O)N(C)Cc1ccc(CN(C)c2nc(=O)c3c(C)c(OC)c(OC)cc3[nH]2)cc1 [Example 9, (4-{[(6,7-Dimethoxy-5-methyl-4-oxo-1,4-dihydro-quinazolin-2-yl)-methyl-amino]-methyl}-benzyl)-methyl-carbamic acid 2-methoxy-ethyl ester]
35 | 238 to 240 °C | COc1cc2[nH]c(N(C)Cc3ccc(CN(C)S(C)(=O)=O)cc3)nc(=O)c2c(C)c1OC [Example 10, N-(4-{[(6,7-Dimethoxy-5-methyl-4-oxo-1,4-dihydro-quinazolin-2-yl)-methyl-amino]-methyl}-benzyl)-N-methyl-methanesulfonamide]
